Experimental data reported in the supplement of paper PMC10949913.

Tests used:
Experiment in all cases: area under concentration-response curve (viability) (AUC (a.u.)); higher = less active
Settings in all cases: 48 h
NCI-H295R = system: NCI-H295R
Procedure, shortened: (§1)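 In 1,536-well plates, 500–1,000 cells/well of three adrenocortical carcinoma cell lines in 5 µL medium received 23 nL of each library compound across 11 concentrations. At 48 h, CellTiter-Glo was incubated for 15 minutes at room temperature and luminescence measured. Per-plate normalisation used vehicle and empty-well controls, and only inhibitory or non-responding curve classes were kept when fitting concentration-response curves for AC50 and area under the curve.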

CU-ACC1 = system: CU-ACC1
Procedure, shortened: as §1

CU-ACC2 = system: CU-ACC2
Procedure, shortened: as §1

| Structure (SMILES) | area under concentration-response curve (NCI-H295R) | area under concentration-response curve (CU-ACC1) | area under concentration-response curve (CU-ACC2) |
| --- | --- | --- | --- |
| OC1=C(Cl)C=C(N\C2=C(\C(=O)NC2=O)C3=C(C=CC=C3)[N+]([O-])=O)C=C1 | 507 | 502 | 475 |
| NCCCC(N)(C(=O)O)C(F)F (stereo not given) | 491 | 443 | 514 |
| CC(C)=CCC/C(C)=C/CC/C(C)=C/CSc1ccccc1C(=O)O | 540 | 527 | 598 |
| COc1ccc2c(C(=S)N(C)CC(=O)O)cccc2c1C(F)(F)F | 481 | 490 | 535 |
| CC(Oc1ccc(O)cc1)(P(=O)(O)O)P(=O)(O)O | 458 | 456 | 508 |
| NC(=O)c1ncn([C@@H]2O[C@H](CO)[C@@H](O)[C@H]2O)n1 | 530 | 511 | 504 |
| CC(=O)OCC(=O)[C@@]1(O)CC[C@H]2[C@@H]3CCC/4=C/C(=O)/C=C\[C@]4(C)[C@H]3[C@@H](O)C[C@]12C | 506 | 460 | 471 |
| CN(C)CCc1c[nH]c2ccc(C[S+](=O)([O-])N3CCCC3)cc12 | 513 | 490 | 612 |
| CN(CCO)C1CCN(c2ccc(Nc3ncc4c5ccnc(F)c5n(C5CCCC5)c4n3)nc2)CC1 | 579 | 467 | 658 |
| CN(C)C1=CC(=CC=C1)C\2=C\3C(=O)N(NC3=C/C(=O)N2C)C4=CC=CC=C4Cl | 533 | 513 | 512 |
| Cc1[nH]c(/C=C2\C(=O)Nc3ccc([S+](=O)([O-])Cc4c(Cl)cccc4Cl)cc32)c(C)c1C(=O)N1CCC[C@@H]1CN1CCCC1 | 376 | 334 | 351 |
| C=CC(=O)N1CCC(CNc2ncnc(N)c2-c2ccc(Oc3ccccc3)cc2)CC1 | 566 | 550 | 615 |
| CCC(C)CCCCC(=O)N[C@@H](CCN)C(=O)NC(C(=O)N[C@H](CCN)C(=O)N[C@@H]1CCNC(=O)C([C@@H](C)O)NC(=O)[C@@H](CCN)NC(=O)[C@@H](CCN)NC(=O)[C@@H](CC(C)C)NC(=O)[C@H](Cc2ccccc2)NC(=O)[C@H](CCN)NC1=O)[C@@H](C)O (stereo not given in full) | 553 | 505 | 631 |
| O=C1c2ccccc2-c2n[nH]c3cccc1c23 | 530 | 494 | 587 |
| O=C(CN1C(=O)C2(CCCC2)NC[C@H]1c1cc(F)cc(F)c1)Nc1ccc2c(c1)C[C@@]1(C2)C(=O)Nc2ncccc21 | 515 | 463 | 565 |
| CCCC1OC2C[C@H]3[C@@H]4CCC5=CC(=O)C=C[C@]5(C)[C@H]4C(O)C[C@]3(C)[C@]2(C(=O)CO)O1 (stereo not given in full) | 607 | 562 | 661 |
| CCCc1c(OCCCOc2ccc(OCC(=O)O)cc2)ccc(C(C)=O)c1O | 548 | 518 | 607 |
| FC(F)(F)c1ccc(CNc2ccc(Cc3c[nH]c4ncc(Cl)cc34)cn2)cn1 | 582 | 555 | 630 |
| C=C1C(=O)OC(CCCCCCCC)C1C(=O)O (stereo not given) | 437 | 409 | 457 |
| CCOc1cc(N)c(Cl)cc1C(=O)NCC1CN(Cc2ccc(F)cc2)CCO1 (stereo not given) | 542 | 554 | 538 |
